Test results: ChEMBL document CHEMBL4411257, “Inhibitors of Melanogenesis: An Updated Review” (J Med Chem, 2018)

What was measured:
[1] = molecular target: T1, Tyrosinase (Homo sapiens, UniProt P14679)
T1 sequence (P14679 whole entry): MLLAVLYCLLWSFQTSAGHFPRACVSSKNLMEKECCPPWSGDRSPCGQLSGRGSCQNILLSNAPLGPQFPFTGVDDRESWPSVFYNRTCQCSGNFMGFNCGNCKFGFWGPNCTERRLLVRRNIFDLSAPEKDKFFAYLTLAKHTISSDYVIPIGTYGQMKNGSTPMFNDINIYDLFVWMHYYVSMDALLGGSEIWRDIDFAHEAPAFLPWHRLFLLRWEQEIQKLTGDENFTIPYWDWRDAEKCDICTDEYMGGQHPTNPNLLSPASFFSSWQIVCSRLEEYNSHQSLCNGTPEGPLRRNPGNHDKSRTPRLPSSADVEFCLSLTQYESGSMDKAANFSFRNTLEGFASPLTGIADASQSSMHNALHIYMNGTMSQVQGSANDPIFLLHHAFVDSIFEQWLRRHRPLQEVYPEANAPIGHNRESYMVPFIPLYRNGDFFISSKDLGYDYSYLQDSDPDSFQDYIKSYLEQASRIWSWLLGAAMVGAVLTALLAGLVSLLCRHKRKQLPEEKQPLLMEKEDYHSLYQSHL

[2] = molecular target: T2, Tyrosinase (Agaricus bisporus, UniProt O42713); assay: Inhibition of Agaricus bisporus tyrosinase using L-tyrosine as substrate after 30 mins by spectrophotometric analysis
T2 sequence (O42713 whole entry): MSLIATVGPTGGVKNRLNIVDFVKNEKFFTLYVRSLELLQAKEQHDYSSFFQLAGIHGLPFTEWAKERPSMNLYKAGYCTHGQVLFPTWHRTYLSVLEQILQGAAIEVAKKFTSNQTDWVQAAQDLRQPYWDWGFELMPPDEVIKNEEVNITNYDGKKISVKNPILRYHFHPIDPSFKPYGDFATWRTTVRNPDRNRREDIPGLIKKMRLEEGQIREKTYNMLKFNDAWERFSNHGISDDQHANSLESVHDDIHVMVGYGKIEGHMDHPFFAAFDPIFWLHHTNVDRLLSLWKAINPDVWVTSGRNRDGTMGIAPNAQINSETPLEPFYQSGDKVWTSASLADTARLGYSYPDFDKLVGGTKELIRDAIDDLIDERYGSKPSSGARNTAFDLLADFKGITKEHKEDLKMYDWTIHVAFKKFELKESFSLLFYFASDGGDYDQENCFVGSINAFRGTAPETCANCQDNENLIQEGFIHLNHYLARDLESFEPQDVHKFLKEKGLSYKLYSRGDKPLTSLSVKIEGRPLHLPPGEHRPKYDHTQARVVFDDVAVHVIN

[3] = molecular target: T3, Tyrosinase (Homo sapiens) (UniProt P14679); assay: Inhibition of human tyrosinase at 1 uM using L-tyrosine as substrate after 30 mins by ELISA relative to control
T3 sequence (whole entry): T1 sequence (P14679 whole entry)

[4] = molecular target: T4, Tyrosinase (Danio rerio) (UniProt A0A8M1PAD4); assay: Inhibition of tyrosinase in zebrafish assessed as reduction in pigmentation level at 10 uM
T4 sequence (whole entry): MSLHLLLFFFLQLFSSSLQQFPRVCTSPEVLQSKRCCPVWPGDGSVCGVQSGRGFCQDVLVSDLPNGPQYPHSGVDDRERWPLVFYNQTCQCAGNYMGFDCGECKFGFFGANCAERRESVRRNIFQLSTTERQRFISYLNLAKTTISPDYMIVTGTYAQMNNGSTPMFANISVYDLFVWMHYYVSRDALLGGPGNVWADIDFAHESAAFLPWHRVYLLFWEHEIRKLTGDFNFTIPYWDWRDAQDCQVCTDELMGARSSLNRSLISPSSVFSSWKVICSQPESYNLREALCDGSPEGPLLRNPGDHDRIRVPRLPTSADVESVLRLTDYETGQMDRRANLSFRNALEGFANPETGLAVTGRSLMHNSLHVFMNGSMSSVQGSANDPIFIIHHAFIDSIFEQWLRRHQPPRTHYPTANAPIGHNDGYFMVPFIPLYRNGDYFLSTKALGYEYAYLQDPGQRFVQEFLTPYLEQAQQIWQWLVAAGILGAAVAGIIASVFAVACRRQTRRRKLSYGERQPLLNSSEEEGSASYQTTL

[5] = molecular target: T3, Tyrosinase (Homo sapiens); assay: Inhibition of tyrosinase in human epidemal melanocytes assessed as reduction in melanin formation at 1 uM; type: cell-based
[6] = molecular target: T5, Tyrosinase (Mus musculus, UniProt P11344); assay: Inhibition of tyrosinase in mouse B16 cells; type: cell-based
T5 sequence (P11344 whole entry): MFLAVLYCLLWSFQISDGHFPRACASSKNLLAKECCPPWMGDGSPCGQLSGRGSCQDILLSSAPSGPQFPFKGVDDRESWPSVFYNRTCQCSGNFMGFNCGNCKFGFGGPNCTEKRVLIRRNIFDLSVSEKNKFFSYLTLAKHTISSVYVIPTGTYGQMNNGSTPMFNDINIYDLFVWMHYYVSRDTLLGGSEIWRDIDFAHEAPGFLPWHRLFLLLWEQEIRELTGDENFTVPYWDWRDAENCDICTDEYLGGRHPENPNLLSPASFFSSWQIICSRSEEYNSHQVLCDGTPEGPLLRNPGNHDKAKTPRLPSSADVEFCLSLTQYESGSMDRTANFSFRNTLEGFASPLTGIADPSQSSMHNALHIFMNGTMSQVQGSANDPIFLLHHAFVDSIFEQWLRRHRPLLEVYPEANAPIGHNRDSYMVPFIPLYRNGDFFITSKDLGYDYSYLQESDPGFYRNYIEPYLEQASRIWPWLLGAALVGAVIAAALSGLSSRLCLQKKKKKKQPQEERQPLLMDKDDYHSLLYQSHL

[7] = molecular target: T1, Tyrosinase; remark: listed apart in the source
[8] = molecular target: T1, Tyrosinase; assay: Inhibition of tyrosinase (unknown origin) assessed as reduction in monophenolase activity
[9] = molecular target: T1, Tyrosinase; assay: Inhibition of tyrosinase (unknown origin) assessed as reduction in diphenolase activity
[10] = molecular target: T5, Tyrosinase
Description: Inhibition of tyrosinase in mouse B16 cells assessed as reduction in melanin synthesis after 1 hr

[11] = molecular target: T2, Tyrosinase
Description: Inhibition of mushroom tyrosinase

[12] = molecular target: T5, Tyrosinase; type: cell-based
Description: Inhibition of tyrosinase in mouse B16F10 cells assessed as reduction in melanin synthesis after 2 hrs by spectrophotometric analysis

[13] = molecular target: T2, Tyrosinase; assay: Inhibition of Agaricus bisporus tyrosinase using L-tyrosine as substrate after 60 mins by spectrophotometric analysis
[14] = Cytotoxicity against mouse B16 cells assessed as cell viability at 1000 uM after 48 hrs by MTT assay relative to control; type: cell-based; settings: read-out: Activity
[15] = molecular target: T1, Tyrosinase; assay: biochemical
Description: Inhibition of recombinant human tyrosinase expressed in baculovirus infected Sf9 cells using L-DOPA as substrate by spectrophotometric analysis

[16] = molecular target: T3, Tyrosinase (Homo sapiens); assay: Competitive inhibition of recombinant human tyrosinase expressed in baculovirus infected Sf9 cells using L-DOPA as substrate by double-reciprocal plot analysis
[17] = molecular target: T6, Tyrosinase (Agaricus bisporus) (UniProt O42713); assay: Inhibition of Agaricus bisporus tyrosinase at 1000 uM relative to control
T6 sequence (whole entry): T2 sequence (O42713 whole entry)

[18] = molecular target: T7, Tyrosinase (Mus musculus) (UniProt P11344); assay: Inhibition of tyrosinase in mouse B16 cells assessed as reduction in alpha-MSH induced melanin synthesis at 30 uM relative to control; type: cell-based
T7 sequence (whole entry): T5 sequence (P11344 whole entry)

[19] = molecular target: T5, Tyrosinase; assay: Inhibition of tyrosinase in mouse B16 cells assessed as reduction in alpha-MSH induced melanin synthesis; type: cell-based
[20] = molecular target: T3, Tyrosinase (Homo sapiens); assay: Potency index, ratio of kojic acid IC50 to compound IC50 for human tyrosinase
[21] = molecular target: T1, Tyrosinase; assay: Inhibition of human tyrosinase after 120 mins

CN(C)c1ccc(/C=C/C(=N\O)c2ccccc2O)cc1
IC50 [1]: 7.89 µM

Cc1ccc(S(=O)(=O)Oc2ccccc2/N=N/c2ccc(O)cc2O)cc1
IC50 [2]: 17.9 µM

COc1ccc(/N=C/c2ccc(O)cc2O)cc1
IC50 [2]: 51.5 µM

CCCCCCCCCCCCC/C=C1\C(=O)O[C@@](C)(OC)[C@@H]1O
inhibition [3]: 50%
inhibition [4]: 25%
inhibition [5]: 40%

OC[C@H]1O[C@@H](Oc2cc(O)cc(/C=C/c3ccc(O[C@@H]4O[C@H](CO)[C@@H](O)[C@H](O)[C@H]4O)cc3O)c2)[C@H](O)[C@@H](O)[C@@H]1O [MULBERROSIDE A]
IC50 [6]: > 100 µM

O=C1C[C@@H](c2ccc(O)cc2O)Oc2cc(O)cc(O)c21
IC50 [1]: 0.98 µM

Oc1ccc(O)cc1 [HYDROQUINONE]
IC50 [7]: 4400 µM

CCCCCCCCn1cc(O)c(=O)cc1COC(=O)[C@@H](N)Cc1ccccc1
IC50 [8]: 12.6 µM
IC50 [9]: 12.6 µM

CC(C)=CCc1c(O)ccc(C[C@@H]2[C@H](c3c(O)ccc(C(=O)/C=C/c4ccc(O)cc4O)c3O)C=C(C)C[C@H]2c2ccc(O)cc2O)c1O
IC50 [1]: 4.62 µM

C/C(=C\Cc1c(O)ccc(C(=O)/C=C/c2ccc(O)cc2O)c1O)CO
IC50 [10]: 4 µM
IC50 [1]: 0.17 µM

O=C1/C(=C/c2ccc(O)cc2)Oc2cc(O)cc(O)c21
IC50 [11]: 38.7 µM

Oc1cc(O)cc(CCc2ccc(O)cc2O)c1
IC50 [6]: 0.3 µM

CCCCCCn1cc(O)c(=O)cc1COC(=O)[C@@H](N)Cc1ccccc1
IC50 [8]: 19.2 µM
IC50 [9]: 42.8 µM

Cc1ccc(S(=O)(=O)Oc2ccccc2/N=N/c2ccc(O)cc2)cc1
IC50 [2]: 201 µM

Oc1ccc(/N=N/c2ccccc2O)cc1
IC50 [2]: 44.1 µM

Oc1ccc(-c2nc(-c3ccncc3)c(-c3ccc(F)cc3)[nH]2)cc1 [SB-202190]
IC50 [12]: 0.03 µM

Oc1ccccc1/C=N/c1ccccc1 [2-((PHENYLIMINO)METHYL)PHENOL]
IC50 [13]: 250 µM

Oc1ccc(/N=C/c2ccc(O)c(O)c2)cc1
IC50 [2]: 17.2 µM

N[C@@H](Cc1ccccc1)C(=O)N[C@@H](Cc1ccccc1)C(=O)OCc1cc(=O)c(O)c[nH]1
IC50 [8]: 8.97 µM
IC50 [9]: 26.2 µM

Oc1ccc(/C=C/c2cc(O)cc(O)c2)cc1 [RESVERATROL]
IC50 [1]: 250 µM

C=C1OC(=O)/C(=C\CCCCCCCCCCCCC)[C@H]1O
inhibition [3]: 50%
inhibition [4]: 30%
inhibition [5]: 40%

CC(C)=CCc1c(O)ccc(C(=O)/C=C/c2ccc(O)cc2O)c1O [MORACHALCONE A]
IC50 [10]: 3.8 µM
IC50 [1]: 0.08 to 0.82 µM

COc1ccc(/C=N/c2ccccc2)cc1
IC50 [13]: 212 µM

CC(C)=CCC[C@](C)(O[C@@H]1O[C@H](CO[C@@H]2O[C@H](CO)[C@@H](O)[C@H](O)[C@H]2O)[C@@H](O)[C@H](O)[C@H]1O)[C@H]1CC[C@]2(C)[C@@H]1[C@H](O)C[C@@H]1[C@@]3(C)CC[C@H](O[C@@H]4O[C@H](CO)[C@@H](O)[C@H](O)[C@H]4O[C@@H]4O[C@H](CO)[C@@H](O)[C@H](O)[C@H]4O)C(C)(C)[C@@H]3CC[C@]12C [GINSENOSIDE RB1]
viability at 48 h, 1000 µM [14]: 4.67%

COc1cc([N+](=O)[O-])ccc1/C=C/C(=N\O)c1ccccc1O
IC50 [1]: 4.77 µM

Oc1ccc(/C=N/c2ccccc2)cc1
IC50 [13]: 145 µM

O=C1/C(=C/c2ccc(O)cc2)Oc2cc(O)ccc21
IC50 [11]: 38.4 µM

Oc1cccc(/C=C/c2ccc(O)cc2O)c1
IC50 [6]: 0.8 µM

O=C1/C(=C/c2ccc(=O)n(O)c2)Oc2cc(O)cc(O)c21
IC50 [15]: 30 µM

O=C1/C(=C/c2ccc(=O)n(O)c2)Oc2cc(O)ccc21
Kic [16]: 0.35 µM
IC50 [11]: 1.5 µM

O=C1/C(=C/c2ccc(O)cc2)Oc2cccc(O)c21
IC50 [11]: 31.7 µM

COc1ccc(NC(=O)/C=C/c2ccc(O)c(O)c2)cc1
inhibition [17]: 36.8%

COc1ccc(/N=C/c2ccc(O)c(O)c2)cc1
IC50 [2]: 61.7 µM

CC(C)=C/C=C1\O[C@@H]2CC(C)=CC(=O)[C@@H]2[C@]1(C)O [BISABOLANGELONE]
inhibition [18]: 99%
IC50 [19]: 9 µM

O=C(/C=C/c1ccc(O)cc1O)c1ccc(O)cc1O
IC50 [10]: 5 µM
IC50 [1]: 0.07 to 0.21 µM

C[S+]([O-])c1ccc(-c2nc(-c3ccncc3)c(-c3ccc(F)cc3)[nH]2)cc1 (stereo not given) [SB-203580]
IC50 [12]: 0.034 µM

O=C(N[C@@H](Cc1ccccc1)C(=O)OCc1cc(=O)c(O)c[nH]1)OCc1ccccc1
IC50 [8]: 1.95 µM
IC50 [9]: 2.79 µM

C=C(C)C(=O)Cc1c(-c2ccc(O)cc2O)oc2c3c(cc(O)c2c1=O)OC(C)(C)C=C3
IC50 [1]: 290 µM

Oc1cc(O)cc(-c2cc3ccc(O)cc3o2)c1 [MORACIN M]
IC50 [1]: 8 µM

CCCCc1ccc(O)cc1O [RUCINOL]
IC50 [7]: 21 µM
Ratio IC50 [20]: 20

O=C(O)/C=C/c1ccc(O)cc1 [COUMARIC ACID]
IC50 [21]: 3 µM
